From PMC6009881, “New sulfurated derivatives of cinnamic acids and rosmaricine as inhibitors of STAT3 and NF-κB transcription factors” (Journal of Enzyme Inhibition and Medicinal Chemistry, 2017) come the findings set out here.

In one data set the target is STAT3-SH2 domain (Homo sapiens, UniProt P40763). Put plainly: STAT AlphaScreen-based assay (STAT3). Type of data set: binding. Particulars: for IC50 / inhibition at 30 µM: AlphaScreen assay; for IC50: read-out: STAT3 IC50 ±SD; for inhibition at 30 µM: read-out: STAT3 % inhibition ± SD at 30 μM. In general terms: Bead proximity is the source of the signal in Alpha formats.

In the next data set the target is T1, SH2-domain of STAT1 (Homo sapiens, UniProt P42224).
T1 sequence (P42224 1-750): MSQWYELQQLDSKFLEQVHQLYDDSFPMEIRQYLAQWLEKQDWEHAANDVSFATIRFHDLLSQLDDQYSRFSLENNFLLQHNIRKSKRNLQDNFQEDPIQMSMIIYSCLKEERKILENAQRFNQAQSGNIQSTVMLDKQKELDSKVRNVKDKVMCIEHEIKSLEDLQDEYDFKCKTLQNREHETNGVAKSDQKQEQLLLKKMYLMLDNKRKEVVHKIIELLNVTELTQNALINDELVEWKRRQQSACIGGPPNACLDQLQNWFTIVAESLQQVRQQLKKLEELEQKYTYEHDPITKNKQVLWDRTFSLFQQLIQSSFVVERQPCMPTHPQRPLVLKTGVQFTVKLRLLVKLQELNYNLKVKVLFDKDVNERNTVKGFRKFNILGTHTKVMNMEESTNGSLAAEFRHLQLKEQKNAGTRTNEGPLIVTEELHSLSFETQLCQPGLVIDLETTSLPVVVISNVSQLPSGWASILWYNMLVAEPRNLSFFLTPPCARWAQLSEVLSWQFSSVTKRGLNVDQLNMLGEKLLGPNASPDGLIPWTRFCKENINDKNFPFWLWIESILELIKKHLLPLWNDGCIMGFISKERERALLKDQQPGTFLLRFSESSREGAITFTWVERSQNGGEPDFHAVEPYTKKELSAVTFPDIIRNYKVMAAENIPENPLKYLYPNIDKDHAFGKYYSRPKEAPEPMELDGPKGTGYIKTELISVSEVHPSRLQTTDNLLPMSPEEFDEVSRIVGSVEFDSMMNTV
Kind of data set: STAT AlphaScreen-based assay (STAT1 selectivity). The class given is binding. Particulars: for inhibition at 30 µM: read-out: STAT1 % inhibition ± SD at 30 μM, 30 μM; for IC50: read-out: STAT1 IC50 ±SD. The procedure:
STAT3 inhibitory activity of the described compounds was tested by the AlphaScreen-based assay to evaluate the potential inhibition of the interaction between STAT3-SH2 domain and pTyr-containing peptides according to the previously reported procedure. For the most interesting compounds, selectivity tests versus STAT1 were performed.
The new sulfurated-drug hybrids, together with their parent compounds have been submitted to the AlphaScreen-based assay, to investigate their ability to bind STAT3 directly, through the evaluation of the inhibition of the binding of SH2-containing proteins to their correspondent phosphopeptides, the physiological ligands. […] Since AlphaScreen is a cell-free assay, not always there is a correspondence between the potency of STAT3 inhibition and cytotoxicity, probably due to not optimal physicochemical properties of the tested compounds, such as solubility and chemical stability in the culture medium and cell permeation.

For data set [1], the system named is STAT3 reporter activity in HeLa cells. Put plainly: STAT3 luciferase reporter gene assay. The class given is cell-based. Particulars: Homo sapiens, 2 h pretreatment, oncostatin M 10 ng/ml 4 h, read-out: STAT3 reporter assay (HeLa) IC50 ±SD. The procedure: STAT3 reporter HeLa stable cell lines (Signosis Inc, Santa Clara, CA) were incubated in a 96-well microplate for 24 h. Cells were pretreated with test compounds for 2 h, and 10 ng/ml (w/v) of oncostatin M were applied and incubated for 4 h. Cells were washed with medium not supplemented with phenol red, and Steady-Glo® reagent (Promega, Madison, WI) was applied. After 15 min incubation, the signals were detected by ARVO Light 1420 (PerkinElmer Life Sciences, Waltham, MA). The relative signal intensity was calculated in each well as the ratio for the mean signal of vehicle.
Background: Reporter assays use an easily measured gene product as a stand-in for the process of interest.

In data set [2] the test system is NF-κB promoter activity in HCT-116 cells. Kind of data set: Luciferase reported NF-κB promoter activity assay. The class given is cell-based. The note with it: Homo sapiens, 2 h pre-treatment, TNF-α 10 ng/ml, NA = not active up to 100 μM, read-out: NF-κB promoter assay (HCT-116) IC50 ±SD. The procedure:
To measure the NF-κB promoter activity, HCT-116 cells were seeded in 100 mm dish and transiently transfected with 6 μg of DNA (NF-κB plasmid, containing luciferase reporter gene[57] with turbofect reagent (Carlo Erba Reagents). After 24 h, cells were seeded in 48-well plates (40.000 cells per well). On the next day, cells were incubated with our compounds for 2 h (pre-treatment) and then TNF-α was added in every well at (10 ng/ml). After 5–6 h, luciferase activity was measured by using Neolite reagent (PerkinElmer Life Sciences, Waltham, MA) according to the manufacturer’s instructions.

Another data set relates to HCT-116 cells. Kind of data set: MTT assay, cytotoxicity on HCT-116. Type of data set: cell-based, human. The note with it: MTT assay, 48 h, NA = not active up to 100 μM, read-out: Cytotoxicity (HCT-116) IC50 ±SD; for IC50 at 48 h: human, HCT-116 cells. The procedure: Following the same protocol used for previous cytotoxicity assays by N. Ferri[55], cells were seeded in 48-well plate (40.000 cells/well) and, after 24 h, they were incubated with different concentrations of our compounds for 48 h.
The determination of the conversion of MTT (3-(4,5-dimethyl-2-thiazolyl)-2,5-diphenyl-2H-tetrazolium bromide) to formazan was determined by using a commercially available kit (Millipore, Billerica, MA), according to the manufacturer’s instructions.
Background: Formazan colour is commonly taken as a measure of viable cells.

Some results are limits rather than exact numbers.

STAT3-SH2 domain, sequence (P40763 whole entry, the tested form may be a part): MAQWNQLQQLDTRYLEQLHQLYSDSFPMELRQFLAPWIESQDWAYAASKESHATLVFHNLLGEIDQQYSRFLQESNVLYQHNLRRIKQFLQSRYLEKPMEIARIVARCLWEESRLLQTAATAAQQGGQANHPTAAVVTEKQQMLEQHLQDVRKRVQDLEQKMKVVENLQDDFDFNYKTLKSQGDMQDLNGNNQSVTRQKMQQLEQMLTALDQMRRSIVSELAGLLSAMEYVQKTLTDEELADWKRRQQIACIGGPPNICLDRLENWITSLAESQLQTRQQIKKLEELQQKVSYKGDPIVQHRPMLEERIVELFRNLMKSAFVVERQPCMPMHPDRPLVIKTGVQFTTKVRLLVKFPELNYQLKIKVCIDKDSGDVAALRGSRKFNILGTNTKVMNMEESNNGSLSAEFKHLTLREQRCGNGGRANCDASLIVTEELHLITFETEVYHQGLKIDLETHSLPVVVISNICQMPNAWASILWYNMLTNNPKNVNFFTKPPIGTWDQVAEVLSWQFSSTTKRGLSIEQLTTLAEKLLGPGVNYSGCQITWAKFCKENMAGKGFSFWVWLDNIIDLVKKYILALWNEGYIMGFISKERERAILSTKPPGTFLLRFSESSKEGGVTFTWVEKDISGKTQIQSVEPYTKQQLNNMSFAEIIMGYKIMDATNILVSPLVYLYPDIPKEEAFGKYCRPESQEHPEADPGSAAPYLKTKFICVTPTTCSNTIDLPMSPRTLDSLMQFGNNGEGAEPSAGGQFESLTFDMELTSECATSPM

What is called IC50 is the concentration that gives 50% inhibition. What is called inhibition is the drop in the measured response relative to a control, in per cent. For orientation: melting point means the temperature, or range, at which the solid turns liquid. `O=C(/C=C/c1ccc(O)c(O)c1)Oc1ccc(-c2cc(=S)ss2)cc1` [Compound 24, (E)-4-(3-thioxo-3H-1,2-dithiol-5-yl)phenyl 3-(3,4-dihydroxyphenyl)acrylate]: the melting point lay within 199.5 to 201.5 °C. Also, on STAT3-SH2 domain, the IC50 came to 13.2 ± 0.9 µM and the inhibition at 30 µM came out at 66.7 ± 0.5%. Further, on SH2-domain of STAT1, the inhibition at 30 µM stood at 21.5 ± 1.8% and the IC50 is over 30 µM. The half-inhibitory concentration (IC50) in data set [1] amounted to 40 ± 1.5 µM. In data set [2], the IC50 is 40.6 ± 3 µM. Further, in the data set on HCT-116 cells, the IC50 is 46.7 ± 4.1 µM and the IC50 at 48 h was 46.7 µM.
Turning to `CC(C)c1cc2c(c(O)c1O)C13CCCC(C)(C)C1C(OC3=O)C2NC(=O)c1ccc(-c2cssc2=S)cc1` (centres unmarked) [Compound 33, N-[4-(3-thioxo-3H-1,2-dithiol-4-yl)benzoyl]rosmaricine], the melting point was in the range of 243.2 to 249.7 °C. For the same molecule, on STAT3-SH2 domain, the IC50 was 2.9 ± 0.2 µM and the inhibition at 30 µM was determined as 94.5 ± 0.4%. Further, on SH2-domain of STAT1, the inhibition at 30 µM is 58.8 ± 5.9% and the IC50 stood at 19.7 ± 4 µM. Also, in data set [1], the IC50 was over 100 µM. Moreover, in data set [2], the half-maximal inhibitory concentration (IC50) turned out to be 73 ± 13.2 µM. Further, the IC50 at 48 h in the data set with HCT-116 cells is 65.4 ± 3.9 µM.
Regarding `COc1cc(/C=C/C(=O)OCCCCSS(C)(=O)=O)ccc1O` [Compound 15, (E)-4-(methylsulfonylthio)butyl 3-(4-hydroxy-3-methoxyphenyl)acrylate], the IC50 on STAT3-SH2 domain turned out to be 0.3 µM; on SH2-domain of STAT1 it was 1.8 ± 0.4 µM; in data set [1], 57.5 ± 1.1 µM; in data set [2] it was 94 ± 4.6 µM. For the same molecule, the inhibition at 30 µM stood at 100 ± 0.1% at STAT3-SH2 domain and 86 ± 6.7% at SH2-domain of STAT1. For the same molecule, the IC50 at 48 h in the data set on HCT-116 cells is 64.4 ± 9.1 µM.
Take `Oc1ccc(-c2cc(=S)ss2)cc1` [Compound 5, 5-(4-hydroxyphenyl)-1,2-dithiol-3-thione]: on STAT3-SH2 domain, the IC50 was over 30 µM and the inhibition at 30 µM was 43.7%. The half-maximal inhibitory concentration (IC50) in data set [2] is 36.7 ± 11.4 µM. In addition, the IC50 at 48 h in the data set with HCT-116 cells stood at 71.2 ± 15 µM.
Regarding `COc1cc(/C=C/C(=O)OCCSS(C)(=O)=O)ccc1O` [Compound 14, (E)-2-(methylsulfonylthio)ethyl 3-(4-hydroxy-3-methoxyphenyl)acrylate], the IC50 on STAT3-SH2 domain was determined as 0.9 µM; on SH2-domain of STAT1, 7 ± 0.7 µM; in data set [1], 65.4 ± 1 µM; in data set [2], 116 ± 2.9 µM. The inhibition at 30 µM on STAT3-SH2 domain was 110.1 ± 0.2%; on SH2-domain of STAT1 it was 110.5 ± 0.6%. Further, in the data set on HCT-116 cells, the half-inhibitory concentration (IC50) at 48 h amounted to 50.4 ± 5.9 µM.
As for `C=CCSSCCOC(=O)/C=C/c1ccc(O)c(O)c1` [Compound 23, (E)-2-(allyldisulfanyl)ethyl 3-(3,4-dihydroxyphenyl)acrylate], the IC50 was 5.5 ± 0.2 µM on STAT3-SH2 domain, over 30 µM at SH2-domain of STAT1, 94.4 ± 26.1 µM in data set [1] and 163 ± 11.1 µM in data set [2]. For the same molecule, the inhibition at 30 µM at STAT3-SH2 domain was determined as 70 ± 1.7%; on SH2-domain of STAT1, 37.7 ± 7.5%. Besides, the IC50 at 48 h in the data set on HCT-116 cells is 73 ± 8 µM.
In turn, `CS(=O)(=O)SCCOC(=O)/C=C/c1ccc(O)c(O)c1` [Compound 21, (E)-2-(methylsulfonylthio)ethyl 3-(3,4-dihydroxyphenyl)acrylate] returned a melting point of 133.1 to 134.8 °C. Further, on STAT3-SH2 domain, the 50% inhibitory concentration (IC50) was 0.8 ± 0.2 µM and the inhibition at 30 µM amounted to 100.1 ± 0.1%. Further, on SH2-domain of STAT1, the inhibition at 30 µM is 85.7 ± 4.3% and the IC50 amounted to 17 ± 1.2 µM. For the same molecule, the concentration for half-maximal inhibition (IC50) in data set [1] came to 60.6 ± 2.8 µM. For the same molecule, the IC50 in data set [2] was found to be 128 ± 8.9 µM. Besides, in the data set with HCT-116 cells, the IC50 at 48 h came to 123 ± 17.3 µM.
On to `CC(C)c1cc2c(c(O)c1O)C13CCCC(C)(C)C1C(OC3=O)C2NC(=O)CCCCSS(C)(=O)=O` (centres unmarked) [Compound 31, N-[5-(methylsulfonyl)thiopentanoyl]rosmaricine], for which the melting point was 121.1 to 124.2 °C (dec.). For the same molecule, at STAT3-SH2 domain, the half-inhibitory concentration (IC50) worked out at 0.2 µM and the inhibition at 30 µM came to 100.1 ± 0.1%. Further, the “fold increase of inhibitory potency on STAT3” value at STAT3-SH2 domain (in comparison to rosmaricine) came out at 10 fold. Further, on SH2-domain of STAT1, the inhibition at 30 µM turned out to be 99.9 ± 0.3% and the IC50 is 2.8 ± 0.1 µM. For the same molecule, the 50% inhibitory concentration (IC50) in data set [1] was over 100 µM. Further, the IC50 in data set [2] amounted to 53.3 ± 10.9 µM. In addition, the IC50 at 48 h in the data set with HCT-116 cells came to 73.8 ± 0.9 µM.
